# ChEMBL document CHEMBL4828774, “Novel PRMT5 Inhibitors for Treating Cancer” (ACS Med Chem Lett, 2021)
# Assay: Cytotoxicity against human HCT116-MTAP null cells assessed as reduction in cell viability incubated for 6 days by CellTiter-Glo luminescent assay
# Assay type: functional, cell-based
# Conditions: 144 h
row,SMILES,IC50
1,Cc1cc2cc(C(=O)N(Cc3ccc(Br)cn3)[C@H](C)c3ncccn3)ccc2nc1N,0.015 µM
2,Cc1cc2cc(C(=O)N(Cc3ccc(C(F)(F)F)cn3)[C@H](C)c3cccc(F)n3)ccc2nc1N,0.013 µM
3,Cc1cc2cc(C(=O)N(Cc3ccc(C(F)(F)F)cn3)[C@@H]3CCCc4nccnc43)ccc2nc1N,0.012 µM
4,Cc1cc2cc(C(=O)N(Cc3ccc(C(F)(F)F)cn3)[C@@H]3CCCc4cn[nH]c43)ccc2nc1N,0.01 µM
5,Cc1cc2cc(C(=O)N(Cc3ccc(C(F)(F)F)cn3)[C@@H]3CCOc4ccc(F)nc43)ccc2nc1N,0.013 µM
6,C[C@H](c1ncccn1)N(Cc1ccc(C(F)(F)F)nn1)C(=O)c1cnc2nc(N)c(I)cc2c1,0.015 µM
